Source: DBAASP
Converted amounts (≈) assume the structure as drawn. Blank lines part the entries; values can stand above or below the compound they belong to.

Columns and labels:
Test in all cases: ≥ marks a high value that may be exact or a test limit, other limits are often not marked, values filed in µg/mL are converted to µM
[1] = test system: Staphylococcus aureus ATCC 25923
[2] = test system: Streptococcus pneumoniae ATCC 49619
[3] = test system: Shigella dysenteriae ATCC 51302
[4] = test system: Bacillus subtilis ATCC 9372
[5] = test system: Salmonella typhimurium ATCC 50013
[6] = test system: Escherichia coli ATCC 25922
[7] = test system: Pseudomonas aeruginosa ATCC 27853
[8] = test system: Staphylococcus aureus SH1000
[9] = test system: Staphylococcus aureus ATCC 29213
[10] = test system: Burkholderia cepacia SMC 71
[11] = test system: Staphylococcus aureus MIU-68A
Klebsiella pneumoniae = test system: Klebsiella pneumoniae
[12] = test system: Stenotrophomonas maltophilia PT4/99
[13] = test system: Pseudomonas aeruginosa 885149
[14] = test system: Pseudomonas aeruginosa VA463/98
[15] = test system: Proteus mirabilis W03VA1144
[16] = test system: Serratia marcescens W99FI0111
[17] = test system: Acinetobacter baumannii AB7MG
[18] = test system: Klebsiella aerogenes W03BG0067
[19] = test system: Klebsiella oxytoca W99FI00049
[20] = test system: Providencia stuartii W03FI0001
Escherichia coli = test system: Escherichia coli
[21] = test system: Morganella morganii W03VA1342
[22] = test system: Citrobacter freundii W99FI00007
[23] = test system: Pseudomonas aeruginosa 891
[24] = test system: Enterobacter cloacae W03AN0041
[25] = test system: Elizabethkingia meningoseptica CCUG 4310
[26] = test system: Proteus mirabilis W99FI0089
[27] = test system: Acinetobacter baumannii AB1MG
[28] = test system: Bacillus subtilis CICC 24434
Escherichia coli E44813 = test system: Escherichia coli E44813
[29] = test system: Salmonella typhimurium SL1344
[30] = test system: Salmonella enterica subsp. enterica serovar Choleraesuis C78-1
[31] = test system: Shigella flexneri CICC 21534
[32] = test system: Pasteurella multocida C48-3
[33] = test system: Staphylococcus epidermidis LY8
[34] = test system: Listeria monocytogenes CICC 21533
[35] = test system: Escherichia coli D31 CGSC 5165
[36] = test system: Staphylococcus aureus ATCC 35556
[37] = test system: Pseudomonas aeruginosa ATCC 47085
[38] = test system: Acinetobacter baumannii ATCC 19606
[39] = test system: Klebsiella pneumoniae ATCC 49472
[40] = test system: Staphylococcus aureus ATCC BAA-2312
[41] = test system: Klebsiella pneumoniae ATCC BAA-2814
[42] = test system: Escherichia coli ATCC 35218
[43] = test system: Salmonella enterica subsp. enterica serovar Typhimurium ATCC 14028
[44] = test system: Staphylococcus aureus ATCC 12600
[45] = test system: Enterococcus faecalis ATCC 51299

SMILES: CC(C)C[C@H](NC(=O)[C@@H](NC(=O)CNC(=O)[C@H](C)NC(=O)[C@H](CC(C)C)NC(=O)[C@H](CS)NC(=O)[C@H](CCCN=C(N)N)NC(=O)[C@H](C)NC(=O)[C@H](CC(C)C)NC(=O)CN)[C@@H](C)O)C(=O)O [GLARCLAGTL]
MIC [1]: 65.7 µM (≈ 64 µg/mL) | MIC [2]: 16.4 µM (≈ 16 µg/mL) | MIC [3]: 16.4 µM (≈ 16 µg/mL) | MIC [4]: 8.21 µM (≈ 8 µg/mL) | MIC [5]: 16.4 µM (≈ 16 µg/mL) | MIC [6]: 8.21 µM (≈ 8 µg/mL) | MIC [7]: 8.21 µM (≈ 8 µg/mL)

SMILES: CC[C@H](C)[C@H](NC(=O)[C@H](CC(=O)O)NC(=O)[C@H](Cc1ccccc1)NC(=O)[C@H](CC(C)C)NC(=O)CN)C(=O)N[C@H](C(=O)N[C@@H](CCCCN)C(=O)N[C@@H](CCCCN)C(=O)N[C@@H](CC(C)C)C(=O)N[C@@H](CC(C)C)C(=O)N[C@@H](CCCCN)C(=O)N[C@@H](CC(C)C)C(=O)N[C@@H](CC(C)C)C(=O)N[C@@H](CCCCN)C(N)=O)C(C)C [GLFDIVKKLLKLLK]
MIC [8]: ≥ 100 µM

SMILES: CC[C@H](C)[C@H](NC(=O)[C@H](CCCCN)NC(=O)CNC(=O)[C@H](CC(C)C)NC(=O)[C@@H](NC(=O)[C@H](C)NC(=O)[C@H](CCCCN)NC(=O)CNC(=O)[C@H](C)NC(=O)CNC(=O)[C@H](CCCCN)NC(=O)[C@H](CCSC)NC(=O)[C@H](CCCCN)NC(=O)[C@@H](NC(=O)[C@H](Cc1c[nH]c2ccccc12)NC(=O)[C@H](CC(C)C)NC(=O)[C@H](CCC(N)=O)NC(=O)[C@H](CCCCN)NC(=O)[C@H](CC(C)C)NC(=O)[C@@H](N)CC(C)C)[C@@H](C)O)C(C)C)C(=O)N[C@@H](CCCCN)C(=O)NCC(=O)N[C@@H](CC(C)C)C(=O)N[C@@H](CC(C)C)C(=O)O [LLKQLWTKMKGAGKAVLGKIKGLL]
MIC [35]: 0.94 µM (≈ 2.44 µg/mL) | MIC [36]: 1.88 µM (≈ 4.88 µg/mL) | MIC [37]: 7.5 µM (≈ 19.5 µg/mL) | MIC [38]: 0.94 µM (≈ 2.44 µg/mL)

SMILES: CC[C@H](C)[C@H](NC(=O)[C@H](CCC(N)=O)NC(=O)[C@H](CO)NC(=O)[C@H](C)NC(=O)[C@H](CC(C)C)NC(=O)[C@H](Cc1cnc[nH]1)NC(=O)[C@@H](NC(=O)[C@H](CC(C)C)NC(=O)[C@H](CC(C)C)NC(=O)CNC(=O)[C@H](CCCCN)NC(=O)CNC(=O)[C@H](C)NC(=O)CNC(=O)[C@H](CCCCN)NC(=O)[C@H](CC(C)C)NC(=O)[C@H](CC(C)C)NC(=O)[C@H](CC(=O)O)NC(=O)[C@H](CC(C)C)NC(=O)[C@H](CC(C)C)NC(=O)CN)[C@@H](C)O)C(N)=O [GLLDLLKGAGKGLLTHLASQI]
MIC [39]: ≥ 125 µM | MIC [40]: ≥ 250 µM | MIC [41]: ≥ 125 µM | MIC [42]: ≥ 62.5 µM | MIC [43]: 250 µM (≈ 529 µg/mL) | MIC [44]: ≥ 250 µM | MIC [45]: ≥ 250 µM

More lines, main results first:

MIC [9]: > 53.4 µM | MIC [10]: ≥ 53.4 µM | MIC [1]: > 107 µM | MIC [11]: ≥ 107 µM | MIC (Klebsiella pneumoniae): 6.68 µM (≈ 8 µg/mL) | MIC [12]: ≥ 107 µM | MIC [13]: 6.68 µM (≈ 8 µg/mL) | MIC [14]: 3.34 µM (≈ 4 µg/mL) | MIC [15]: ≥ 53.4 µM | MIC [16]: ≥ 107 µM | MIC [17]: 26.7 µM (≈ 32 µg/mL) | MIC [18]: 6.68 µM (≈ 8 µg/mL) | MIC [19]: ≥ 53.4 µM | MIC [6]: 3.34 µM (≈ 4 µg/mL) | MIC [20]: ≥ 107 µM | MIC (Escherichia coli): 6.68 µM (≈ 8 µg/mL) | MIC [21]: ≥ 107 µM | MIC [22]: 13.4 µM (≈ 16 µg/mL) | MIC [23]: 6.68 µM (≈ 8 µg/mL) | MIC [24]: 3.34 µM (≈ 4 µg/mL) | MIC [7]: 3.34 µM (≈ 4 µg/mL) | MIC [25]: ≥ 107 µM | MIC [26]: ≥ 107 µM | MIC [27]: 13.4 µM (≈ 16 µg/mL)
SMILES: CC[C@H](C)[C@H](NC(=O)[C@H](CCCCN)NC(=O)[C@H](CCCCN)NC(=O)[C@@H](N)CCC(N)=O)C(=O)N[C@@H](CCCN=C(N)N)C(=O)N[C@H](C(=O)N[C@@H](CCCN=C(N)N)C(=O)N[C@@H](CC(C)C)C(=O)N[C@@H](CO)C(=O)N[C@@H](C)C(=O)O)C(C)C [QKKIRVRLSA]

MIC [1]: 0.0041 µM (≈ 0.0124 µg/mL) | MIC [28]: 0.259 µM (≈ 0.78 µg/mL) | MIC (Escherichia coli E44813): 2.07 µM (≈ 6.25 µg/mL) | MIC [29]: 0.259 µM (≈ 0.78 µg/mL) | MIC [31]: 24.9 µM (≈ 75 µg/mL) | MIC [32]: 0.259 µM (≈ 0.78 µg/mL) | MIC [33]: 4.14 µM (≈ 12.5 µg/mL) | MIC [34]: 20.7 µM (≈ 62.5 µg/mL)
SMILES: CC[C@H](C)[C@H](NC(=O)[C@@H](NC(=O)[C@H](Cc1ccccc1)NC(=O)[C@H](CCCCN)NC(=O)[C@@H]1CCCN1C(=O)[C@H](CCCCN)NC(=O)[C@H](CCC(N)=O)NC(=O)[C@@H]1CCCN1C(=O)[C@H](CCCN=C(N)N)NC(=O)[C@H](CCCN=C(N)N)NC(=O)[C@@H](NC(=O)[C@H](CCCN=C(N)N)NC(=O)[C@H](Cc1c[nH]c2ccccc12)NC(=O)[C@H](CC(C)C)NC(=O)[C@H](CCCN=C(N)N)NC(=O)[C@H](CC(=O)O)NC(=O)[C@@H](NC(=O)[C@@H](NC(=O)[C@@H](N)CCCN=C(N)N)[C@@H](C)CC)[C@@H](C)CC)C(C)C)C(C)C)C(=O)N[C@H](C(=O)N[C@@H](Cc1c[nH]c2ccccc12)C(=O)N[C@H](C(=O)N[C@@H](CCCN=C(N)N)C(=O)O)C(C)C)C(C)C [RIIDRLWRVRRPQKPKFVIVWVR]
MIC [30]: 0.129 µM (≈ 0.39 µg/mL)
